Experimental data: patent US9125913B2, “Bcl-2-selective apoptosis-inducing agents for the treatment of cancer and immune diseases” (AbbVie Inc., priority 2008, dated 2015)

tested on: GST-Bcl-2; experiment: TR-FRET binding assay, Bcl-2; conditions: TR-FRET Ki values
Summary of the method: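 Compounds serially diluted in DMSO from 50 μM (2× starting concentration, 10% DMSO), mixed with GST-tagged protein, F-Bak peptide probe and Tb-labeled antibody, incubated 3 h at room temperature.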

Structure (SMILES)	Binding selectivity ratio (Bcl-XL Ki/Bcl-2 Ki)
O=C(NS(=O)(=O)c1ccc(NC2CCN(C3CCOCC3)CC2)c([N+](=O)[O-])c1)c1ccc(N2CCN(CC3=C(c4ccc(Cl)cc4)CCC(O)C3)CC2)cc1Oc1ccc2[nH]ccc2c1 (stereo not shown) [EXAMPLE 225, 4-(4-{[2-(4-chlorophenyl)-5-hydroxycyclohex-1-en-1-yl]methyl}piperazin-1-yl)-2-(1H-indol-5-yloxy)-N-({3-nitro-4-[(1-tetrahydro-2H-pyran-4-ylpiperidin-4-yl)amino]phenyl}sulfonyl)benzamide]	>348.2
CN1CCN(Nc2ccc(S(=O)(=O)NC(=O)c3ccc(N4CCN(CC5=C(c6ccc(Cl)cc6)CCC(O)C5)CC4)cc3Oc3ccc4[nH]ccc4c3)cc2[N+](=O)[O-])CC1 (stereo not shown) [EXAMPLE 226, 4-(4-{[2-(4-chlorophenyl)-5-hydroxycyclohex-1-en-1-yl]methyl}piperazin-1-yl)-2-(1H-indol-5-yloxy)-N-({4-[(4-methylpiperazin-1-yl)amino]-3-nitrophenyl}sulfonyl)benzamide]	577.7
CC1(C)CCC(CN2CCN(c3ccc(C(=O)NS(=O)(=O)c4ccc(NC5CCN(C6Cc7ccccc7C6)CC5)c([N+](=O)[O-])c4)c(Oc4cccc5[nH]ccc45)c3)CC2)=C(c2ccc(Cl)cc2)C1 [EXAMPLE 227, 4-(4-{[2-(4-chlorophenyl)-4,4-dimethylcyclohex-1-en-1-yl]methyl}piperazin-1-yl)-N-[(4-{[1-(2,3-dihydro-1H-inden-2-yl)piperidin-4-yl]amino}-3-nitrophenyl)sulfonyl]-2-(1H-indol-4-yloxy)benzamide]	>96.6
CC1(C)CCC(CN2CCN(c3ccc(C(=O)NS(=O)(=O)c4ccc(NC5CCN(C6Cc7ccccc7C6)CC5)c([N+](=O)[O-])c4)c(Oc4ccc5[nH]ccc5c4)c3)CC2)=C(c2ccc(Cl)cc2)C1 [EXAMPLE 228, 4-(4-{[2-(4-chlorophenyl)-4,4-dimethylcyclohex-1-en-1-yl]methyl}piperazin-1-yl)-N-[(4-{[1-(2,3-dihydro-1H-inden-2-yl)piperidin-4-yl]amino}-3-nitrophenyl)sulfonyl]-2-(1H-indol-5-yloxy)benzamide]	>141.4
CC1(C)CCC(CN2CCN(c3ccc(C(=O)NS(=O)(=O)c4ccc(NCC5(N6CCOCC6)CCCCC5)c([N+](=O)[O-])c4)c(Oc4ccc5[nH]ccc5c4)c3)CC2)=C(c2ccc(Cl)cc2)C1 [EXAMPLE 229, 4-(4-{[2-(4-chlorophenyl)-4,4-dimethylcyclohex-1-en-1-yl]methyl}piperazin-1-yl)-2-(1H-indol-5-yloxy)-N-[(4-{[(1-morpholin-4-ylcyclohexyl)methyl]amino}-3-nitrophenyl)sulfonyl]benzamide]	>13.4
CC1(C)CCC(CN2CCN(c3ccc(C(=O)NS(=O)(=O)c4ccc(NC5CCN(Cc6nccs6)CC5)c([N+](=O)[O-])c4)c(Oc4ccc5[nH]ccc5c4)c3)CC2)=C(c2ccc(Cl)cc2)C1 [EXAMPLE 230, 4-(4-{[2-(4-chlorophenyl)-4,4-dimethylcyclohex-1-en-1-yl]methyl}piperazin-1-yl)-2-(1H-indol-5-yloxy)-N-[(3-nitro-4-{[1-(1,3-thiazol-2-ylmethyl)piperidin-4-yl]amino}phenyl)sulfonyl]benzamide]	>74.8
CC1(C)CCC(CN2CCN(c3ccc(C(=O)NS(=O)(=O)c4ccc(NC5CCN(Cc6cscn6)CC5)c([N+](=O)[O-])c4)c(Oc4ccc5[nH]ccc5c4)c3)CC2)=C(c2ccc(Cl)cc2)C1 [EXAMPLE 231, 4-(4-{[2-(4-chlorophenyl)-4,4-dimethylcyclohex-1-en-1-yl]methyl}piperazin-1-yl)-2-(1H-indol-5-yloxy)-N-[(3-nitro-4-{[1-(1,3-thiazol-4-ylmethyl)piperidin-4-yl]amino}phenyl)sulfonyl]benzamide]	>718.8
CC1(C)CCC(CN2CCN(c3ccc(C(=O)NS(=O)(=O)c4ccc(NCC5(CO)CCOCC5)c([N+](=O)[O-])c4)c(Oc4ccc5[nH]ccc5c4)c3)CC2)=C(c2ccc(Cl)cc2)C1 [EXAMPLE 232, 4-(4-{[2-(4-chlorophenyl)-4,4-dimethylcyclohex-1-en-1-yl]methyl}piperazin-1-yl)-N-{[4-({[4-(hydroxymethyl)tetrahydro-2H-pyran-4-yl]methyl}amino)-3-nitrophenyl]sulfonyl}-2-(1H-indol-5-yloxy)benzamide]	429.1
CC1(C)CCC(CN2CCN(c3ccc(C(=O)NS(=O)(=O)c4ccc(NN5CCN(CCO)CC5)c([N+](=O)[O-])c4)c(Oc4ccc5[nH]ccc5c4)c3)CC2)=C(c2ccc(Cl)cc2)C1 [EXAMPLE 233, 4-(4-{[2-(4-chlorophenyl)-4,4-dimethylcyclohex-1-en-1-yl]methyl}piperazin-1-yl)-N-[(4-{[4-(2-hydroxyethyl)piperazin-1-yl]amino}-3-nitrophenyl)sulfonyl]-2-(1H-indol-5-yloxy)benzamide]	>2714.3
CN1CC[C@H](Nc2ccc(S(=O)(=O)NC(=O)c3ccc(N4CCN(CC5=C(c6ccc(Cl)cc6)CC(C)(C)CC5)CC4)cc3Oc3ccc4[nH]ccc4c3)cc2[N+](=O)[O-])C1 [EXAMPLE 234, 4-(4-{[2-(4-chlorophenyl)-4,4-dimethylcyclohex-1-en-1-yl]methyl}piperazin-1-yl)-2-(1H-indol-5-yloxy)-N-[(4-{[(3S)-1-methylpyrrolidin-3-yl]amino}-3-nitrophenyl)sulfonyl]benzamide]	66.3
CC1(C)CCC(CN2CCN(c3ccc(C(=O)NS(=O)(=O)c4ccc(NC5CCN(CCCF)CC5)c([N+](=O)[O-])c4)c(Oc4ccc5[nH]ccc5c4)c3)CC2)=C(c2ccc(Cl)cc2)C1 [EXAMPLE 235, 4-(4-{[2-(4-chlorophenyl)-4,4-dimethylcyclohex-1-en-1-yl]methyl}piperazin-1-yl)-N-[(4-{[1-(3-fluoropropyl)piperidin-4-yl]amino}-3-nitrophenyl)sulfonyl]-2-(1H-indol-5-yloxy)benzamide]	231.4
CC1(C)CCC(CN2CCN(c3ccc(C(=O)NS(=O)(=O)c4ccc(NCC5CCOCC5)c([N+](=O)[O-])c4)c(Oc4ccc5[nH]ccc5c4)c3)CC2CO)=C(c2ccc(Cl)cc2)C1 (stereo not shown) [EXAMPLE 236, 4-[4-{[2-(4-chlorophenyl)-4,4-dimethylcyclohex-1-en-1-yl]methyl}-3-(hydroxymethyl)piperazin-1-yl]-2-(1H-indol-5-yloxy)-N-({3-nitro-4-[(tetrahydro-2H-pyran-4-ylmethyl)amino]phenyl}sulfonyl)benzamide]	>1787.6
CC1(C)CCC(CN2CCN(c3ccc(C(=O)NS(=O)(=O)c4ccc(NCC5(N)CCOCC5)c([N+](=O)[O-])c4)c(Oc4ccc5[nH]ccc5c4)c3)CC2CO)=C(c2ccc(Cl)cc2)C1 (stereo not shown) [EXAMPLE 237, N-[(4-{[(4-aminotetrahydro-2H-pyran-4-yl)methyl]amino}-3-nitrophenyl)sulfonyl]-4-[4-{[2-(4-chlorophenyl)-4,4-dimethylcyclohex-1-en-1-yl]methyl}-3-(hydroxymethyl)piperazin-1-yl]-2-(1H-indol-5-yloxy)benzamide]	668.3
